# Laboratory results: ChEMBL document CHEMBL1150977, “A quantitative analysis of kinase inhibitor selectivity” (Nat Biotechnol, 2008)
# Experiments:
# [1] = molecular target: Mitogen-activated protein kinase kinase kinase kinase 1 (Homo sapiens, UniProt Q92918)
# [2] = molecular target: T1, Serine/threonine-protein kinase D2 (Homo sapiens, UniProt Q9BZL6)
# T1 sequence (Q9BZL6 whole entry): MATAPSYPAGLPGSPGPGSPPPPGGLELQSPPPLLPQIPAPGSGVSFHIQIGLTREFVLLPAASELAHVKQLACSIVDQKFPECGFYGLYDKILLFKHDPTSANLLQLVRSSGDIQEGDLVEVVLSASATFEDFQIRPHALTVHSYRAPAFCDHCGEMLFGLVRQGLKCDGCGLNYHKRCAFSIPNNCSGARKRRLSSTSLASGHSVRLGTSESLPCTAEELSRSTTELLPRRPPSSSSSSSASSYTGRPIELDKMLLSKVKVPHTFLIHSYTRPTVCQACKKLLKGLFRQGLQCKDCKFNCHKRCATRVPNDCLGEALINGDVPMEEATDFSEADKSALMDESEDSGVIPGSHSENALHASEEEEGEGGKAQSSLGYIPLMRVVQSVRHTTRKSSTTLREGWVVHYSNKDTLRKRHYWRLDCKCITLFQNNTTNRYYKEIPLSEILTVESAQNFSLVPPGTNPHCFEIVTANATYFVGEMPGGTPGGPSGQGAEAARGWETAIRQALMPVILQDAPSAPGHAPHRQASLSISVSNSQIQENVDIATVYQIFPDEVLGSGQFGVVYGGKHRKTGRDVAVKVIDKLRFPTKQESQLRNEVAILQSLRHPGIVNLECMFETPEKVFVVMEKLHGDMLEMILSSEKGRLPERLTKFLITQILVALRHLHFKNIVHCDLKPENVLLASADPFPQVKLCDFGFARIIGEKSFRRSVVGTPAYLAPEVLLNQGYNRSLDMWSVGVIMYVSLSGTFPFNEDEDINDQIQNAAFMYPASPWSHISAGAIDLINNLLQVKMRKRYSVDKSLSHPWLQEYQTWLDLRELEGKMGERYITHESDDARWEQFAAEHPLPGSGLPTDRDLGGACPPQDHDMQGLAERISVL
# [3] = molecular target: MAP kinase-activated protein kinase 2 (Homo sapiens, UniProt P49137)
# MAP kinase-activated protein kinase 2, sequence (P49137 whole entry): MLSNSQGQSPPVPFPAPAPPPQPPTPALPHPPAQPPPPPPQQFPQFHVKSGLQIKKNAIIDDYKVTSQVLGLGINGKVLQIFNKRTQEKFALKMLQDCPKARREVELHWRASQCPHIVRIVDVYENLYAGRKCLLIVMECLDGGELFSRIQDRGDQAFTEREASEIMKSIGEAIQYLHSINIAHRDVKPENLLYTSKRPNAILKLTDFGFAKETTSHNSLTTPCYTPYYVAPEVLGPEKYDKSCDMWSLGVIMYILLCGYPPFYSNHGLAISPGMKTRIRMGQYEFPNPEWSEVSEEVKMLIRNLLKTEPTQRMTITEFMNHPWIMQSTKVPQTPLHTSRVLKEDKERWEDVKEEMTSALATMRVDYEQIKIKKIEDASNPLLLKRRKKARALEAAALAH
# [4] = molecular target: T2, Receptor-interacting serine/threonine-protein kinase 1 (Homo sapiens, UniProt Q13546)
# T2 sequence (Q13546 whole entry): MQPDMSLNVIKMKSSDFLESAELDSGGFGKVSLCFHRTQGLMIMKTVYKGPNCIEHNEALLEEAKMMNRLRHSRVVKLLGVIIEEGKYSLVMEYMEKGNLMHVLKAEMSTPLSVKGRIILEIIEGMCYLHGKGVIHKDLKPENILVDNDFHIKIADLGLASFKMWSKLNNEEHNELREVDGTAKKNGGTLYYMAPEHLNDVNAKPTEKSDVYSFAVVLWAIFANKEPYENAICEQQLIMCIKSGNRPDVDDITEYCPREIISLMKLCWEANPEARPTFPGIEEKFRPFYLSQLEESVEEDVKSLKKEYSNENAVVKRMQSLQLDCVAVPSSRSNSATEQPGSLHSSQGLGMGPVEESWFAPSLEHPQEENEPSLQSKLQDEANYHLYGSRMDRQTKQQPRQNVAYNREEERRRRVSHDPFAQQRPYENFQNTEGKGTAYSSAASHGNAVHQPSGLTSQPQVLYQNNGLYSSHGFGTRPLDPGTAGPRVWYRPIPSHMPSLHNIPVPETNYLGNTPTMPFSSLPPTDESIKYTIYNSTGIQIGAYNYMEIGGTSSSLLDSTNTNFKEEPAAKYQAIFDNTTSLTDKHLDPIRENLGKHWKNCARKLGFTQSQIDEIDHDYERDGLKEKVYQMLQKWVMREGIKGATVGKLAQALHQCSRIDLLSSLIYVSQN
# Activated CDC42 kinase 1 = Activated CDC42 kinase 1 (Homo sapiens, UniProt Q07912)
# Activated CDC42 kinase 1, sequence (Q07912 whole entry): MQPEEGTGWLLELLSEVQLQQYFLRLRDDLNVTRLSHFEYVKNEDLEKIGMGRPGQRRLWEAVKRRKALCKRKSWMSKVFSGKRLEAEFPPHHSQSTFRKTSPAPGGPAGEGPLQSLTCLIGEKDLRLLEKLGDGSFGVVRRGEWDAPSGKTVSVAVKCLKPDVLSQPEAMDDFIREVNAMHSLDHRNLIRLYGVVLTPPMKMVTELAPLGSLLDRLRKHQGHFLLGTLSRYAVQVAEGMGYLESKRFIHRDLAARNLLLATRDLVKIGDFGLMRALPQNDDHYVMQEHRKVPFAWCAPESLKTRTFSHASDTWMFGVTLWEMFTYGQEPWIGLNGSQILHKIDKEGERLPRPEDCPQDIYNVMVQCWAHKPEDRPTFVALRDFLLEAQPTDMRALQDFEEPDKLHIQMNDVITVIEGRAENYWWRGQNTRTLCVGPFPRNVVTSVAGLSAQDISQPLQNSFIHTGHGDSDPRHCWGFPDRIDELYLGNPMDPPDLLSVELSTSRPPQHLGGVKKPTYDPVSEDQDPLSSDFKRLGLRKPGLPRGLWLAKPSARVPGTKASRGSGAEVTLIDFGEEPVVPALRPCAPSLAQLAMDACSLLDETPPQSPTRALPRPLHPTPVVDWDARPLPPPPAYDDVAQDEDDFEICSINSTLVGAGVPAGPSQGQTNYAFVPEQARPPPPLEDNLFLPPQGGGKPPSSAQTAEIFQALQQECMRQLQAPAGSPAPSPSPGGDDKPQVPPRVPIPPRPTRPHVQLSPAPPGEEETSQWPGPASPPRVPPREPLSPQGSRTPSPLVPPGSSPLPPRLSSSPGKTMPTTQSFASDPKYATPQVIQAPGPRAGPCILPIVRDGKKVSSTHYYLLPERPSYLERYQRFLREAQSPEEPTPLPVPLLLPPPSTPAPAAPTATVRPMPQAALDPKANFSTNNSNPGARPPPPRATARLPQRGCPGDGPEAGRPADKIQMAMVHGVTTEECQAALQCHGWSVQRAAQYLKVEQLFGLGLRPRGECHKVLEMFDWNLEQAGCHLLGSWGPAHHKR
# [5] = molecular target: T3, Cyclin-G-associated kinase (Homo sapiens, UniProt O14976)
# T3 sequence (O14976 whole entry): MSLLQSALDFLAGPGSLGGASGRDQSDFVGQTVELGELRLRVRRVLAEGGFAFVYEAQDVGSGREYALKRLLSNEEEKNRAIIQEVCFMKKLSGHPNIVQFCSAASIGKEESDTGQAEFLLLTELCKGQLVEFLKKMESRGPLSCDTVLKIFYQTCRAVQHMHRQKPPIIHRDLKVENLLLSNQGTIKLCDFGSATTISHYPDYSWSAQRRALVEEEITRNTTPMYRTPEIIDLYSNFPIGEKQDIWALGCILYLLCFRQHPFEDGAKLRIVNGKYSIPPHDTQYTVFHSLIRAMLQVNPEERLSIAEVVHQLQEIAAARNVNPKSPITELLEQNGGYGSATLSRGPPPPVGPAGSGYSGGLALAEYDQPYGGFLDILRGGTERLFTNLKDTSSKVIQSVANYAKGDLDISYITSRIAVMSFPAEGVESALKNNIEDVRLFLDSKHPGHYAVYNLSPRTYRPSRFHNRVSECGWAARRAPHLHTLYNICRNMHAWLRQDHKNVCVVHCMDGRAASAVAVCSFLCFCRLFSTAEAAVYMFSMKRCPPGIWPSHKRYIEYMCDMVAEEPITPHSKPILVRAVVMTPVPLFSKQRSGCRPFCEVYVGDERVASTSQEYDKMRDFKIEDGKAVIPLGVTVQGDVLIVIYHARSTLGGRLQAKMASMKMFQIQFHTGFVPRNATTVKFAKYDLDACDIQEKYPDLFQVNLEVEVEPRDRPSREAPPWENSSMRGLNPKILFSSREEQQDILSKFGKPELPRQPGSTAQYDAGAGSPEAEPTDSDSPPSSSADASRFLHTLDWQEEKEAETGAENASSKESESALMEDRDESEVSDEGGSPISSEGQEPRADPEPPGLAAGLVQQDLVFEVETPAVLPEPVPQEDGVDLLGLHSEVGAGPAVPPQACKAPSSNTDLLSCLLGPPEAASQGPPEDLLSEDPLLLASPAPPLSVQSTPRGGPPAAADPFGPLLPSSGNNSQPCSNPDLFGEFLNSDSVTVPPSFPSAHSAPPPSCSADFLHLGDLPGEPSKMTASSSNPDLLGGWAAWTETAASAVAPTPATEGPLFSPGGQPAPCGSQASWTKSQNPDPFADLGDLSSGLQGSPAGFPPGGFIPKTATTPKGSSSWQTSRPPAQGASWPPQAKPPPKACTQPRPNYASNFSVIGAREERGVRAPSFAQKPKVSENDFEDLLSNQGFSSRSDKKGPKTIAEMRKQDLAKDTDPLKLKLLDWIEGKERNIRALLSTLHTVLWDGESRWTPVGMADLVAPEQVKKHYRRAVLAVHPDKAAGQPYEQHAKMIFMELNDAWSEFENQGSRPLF
# Mitogen-activated protein kinase kinase kinase kinase 1, sequence (Q92918 whole entry): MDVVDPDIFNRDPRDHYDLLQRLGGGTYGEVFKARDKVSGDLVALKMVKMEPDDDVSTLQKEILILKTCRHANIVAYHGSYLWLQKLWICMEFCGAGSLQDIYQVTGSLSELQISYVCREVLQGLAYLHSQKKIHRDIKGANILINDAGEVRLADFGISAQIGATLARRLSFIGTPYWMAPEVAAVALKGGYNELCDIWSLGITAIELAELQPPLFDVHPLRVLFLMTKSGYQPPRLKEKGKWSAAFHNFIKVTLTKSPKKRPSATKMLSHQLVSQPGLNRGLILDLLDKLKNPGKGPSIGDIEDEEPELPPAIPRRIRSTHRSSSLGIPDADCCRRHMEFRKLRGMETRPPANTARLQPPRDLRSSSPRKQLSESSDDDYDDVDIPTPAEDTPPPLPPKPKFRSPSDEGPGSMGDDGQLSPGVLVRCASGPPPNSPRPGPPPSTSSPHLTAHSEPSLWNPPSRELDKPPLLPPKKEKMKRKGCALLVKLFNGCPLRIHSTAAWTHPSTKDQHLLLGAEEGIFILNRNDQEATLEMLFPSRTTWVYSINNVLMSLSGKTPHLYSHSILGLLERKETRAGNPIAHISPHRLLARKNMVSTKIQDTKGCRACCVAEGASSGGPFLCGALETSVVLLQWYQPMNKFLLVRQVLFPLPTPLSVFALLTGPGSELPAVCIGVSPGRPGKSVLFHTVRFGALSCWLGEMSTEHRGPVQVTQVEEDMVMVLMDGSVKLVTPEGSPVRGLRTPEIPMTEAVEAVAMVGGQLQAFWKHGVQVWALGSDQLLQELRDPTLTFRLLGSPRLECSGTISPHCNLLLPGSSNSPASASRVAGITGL
Compound,Kd [1] [µM],Kd [2] [µM],Kd [3] [µM],Kd [4] [µM],Kd (Activated CDC42 kinase 1) [µM],Kd [5] [µM]
COCC(=O)NC/C=C/c1ccc2ncnc(Nc3ccc(Oc4ccc(C)nc4)c(C)c3)c2c1 [CP-724714],> 10,> 10,> 10,> 10,> 10,> 10
NC(=O)c1ccc(-c2nc(-c3ccc4c(c3)OCO4)c(-c3ccccn3)[nH]2)cc1 [SB-431542],> 10,> 10,> 10,> 10,> 10,> 10
Nc1nc(Nc2ccc(S(N)(=O)=O)cc2)nn1C(=O)c1c(F)cccc1F [JNJ-7706621],0.12,> 10,> 10,1.8,,
CCOc1cc2ncc(C#N)c(Nc3ccc(F)c(Cl)c3)c2cc1NC(=O)/C=C/CN(C)C [PELITINIB],,> 10,> 10,> 10,5.2,0.0064
Oc1ccc(-c2nc(-c3ccncc3)c(-c3ccc(F)cc3)[nH]2)cc1 [SB-202190],> 10,> 10,> 10,> 10,> 10,
